Test results: patent US20230263822A1, “MODULATION OF FACTOR 11 EXPRESSION” (Ionis Pharmaceuticals, Inc., priority 2008, published 2023)
Read-outs that look alike come from different tables or passages of the source. Strand notation (5' to 3'): a small letter for the sugar, then the base; units joined by * are phosphorothioate-linked, units joined directly phosphodiester-linked; [ ] holds rarer units or linkages, { } end groups; capitals alone tell only the bases. e = 2'-O-(2-methoxyethyl) (MOE); [5mC] = 5-methylcytosine; d = 2'-deoxy (DNA)

Key:
[1] = Tolerability in CD1 mice: liver function (Example 41); settings: 50 mg/kg s.c. twice per week for 6 weeks, plasma
[2] = Tolerability in CD1 mice: liver function (Example 43); type: in vivo; design: Albumin: unit not given here; settings: 50 mg/kg s.c. twice per week for 6 weeks, plasma
[3] = Tolerability in CD1 mice: body weight and organ weight (Example 43); type: in vivo; settings: 50 mg/kg s.c. twice per week for 6 weeks, at the end of the study
Source text: The body weights of the mice taken at the end of the study are presented in Table 104 and are expressed in grams.

[4] = Tolerability in CD1 mice: hematology assays (Example 43); type: in vivo; settings: 50 mg/kg s.c. twice per week for 6 weeks, blood
[5] = mouse, in vivo, sc, 50 mg/kg
[6] = Body and organ weights of cynomolgus monkeys (Example 45); type: in vivo; settings: for Organ weights, Kidney / Organ weights, Liver / Organ weights, Spleen: after the animals were euthanized; for body weights: escalating dose regimen;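 for Organ weights, Kidney: absolute organ weight in grams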;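 for Organ weights, Liver: absolute organ weight in grams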;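 for Organ weights, Spleen: absolute organ weight in grams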
Method: Groups, each consisting of two male and three female monkeys, were injected subcutaneously with ISIS 416838, ISIS 416850, ISIS 416858, ISIS 416864, or ISIS 417002 in escalating doses. Antisense oligonucleotide was administered to the monkeys at 5 mg/kg three times per a week for week 1; 5 mg/kg twice per week for weeks 2 and 3; 10 mg/kg three times per week for week 4; 10 mg/kg twice per week for weeks 5 and 6; 25 mg/kg three times per week for week 7; and 25 mg/kg twice per week for weeks 8, 9, 10, 11, and 12. One control group, consisting of two male and three female monkeys, was injected subcutaneously with PBS according to the same dosing regimen. An additional experimental group, consisting of two male and three female monkeys, was injected subcutaneously with ISIS 416850 in a chronic, lower dose regimen. Antisense oligonucleotide was administered to the monkeys at 5 mg/kg three times per week for week 1; 5 mg/kg twice per week for week 2 and 3; 10 mg/kg three times per week for week 4; and 10 mg/kg twice per week for weeks 5 to 12. Body weights were measured weekly. Blood samples were collected 14 days and 5 days before the start of treatment and subsequently once per week for Factor 11 protein activity analysis in plasma, fibrinogen measurement, PT and aPTT measurements, bleeding times, and measurement of various hematologic factors. On day 85, the monkeys were euthanized by exsanguination while under deep anesthesia, and organs harvested for further analysis.
Body weights were taken once weekly throughout the dosing regimen. […] Organ weights were taken after the animals were euthanized and livers, kidneys and spleens were harvested and weighed. […] The ISIS oligonucleotide, ISIS 416850, given with the chronic dose regimen is distinguished from the other oligonucleotides with an asterisk (*).

[7] = Tolerability in Sprague-Dawley rats: hematology assays (Example 35); settings: 50 mg/kg s.c. twice per week for 6 weeks; for HCT / MCH / MCHC / MCV: title says % control
Method: A control group of four Sprague Dawley rats was injected subcutaneously with PBS twice per week for 6 weeks. Body weight measurements were taken before and throughout the treatment period. Urine samples were taken before the start of treatment. Three days after the last dose, urine samples were taken and the rats were sacrificed. Organ weights were measured and blood was collected for further analysis.
Blood obtained from all rat groups were sent to Antech Diagnostics for hematocrit (HCT), mean corpuscular volume (MCV), mean corpuscular hemoglobin (MCV), and mean corpuscular hemoglobin concentration (MCHC) measurements and analyses, as well as measurements of various blood cells, such as WBC (neutrophils, lymphocytes and monocytes), RBC, and platelets as well as hemoglobin content.

[8] = mouse, in vivo, sc, 50 mg/kg; remark: listed apart in the source
[9] = Tolerability in CD1 mice: kidney function, BUN (Example 37); settings: plasma, 50 mg/kg s.c. twice per week for 6 weeks
[10] = Tolerability in CD1 mice: body weight and organ weights (Example 37); settings: 50 mg/kg s.c. twice per week for 6 weeks; for body weight: increase in grams over the PBS control weight taken before the start of treatment; for Kidney weight / Liver weight / Spleen weight: percentage of the body weight
Method: Body weight was measured at the onset of the study and subsequently twice per week. The body weights of the mice are presented in Table 80 and are expressed increase in grams over the PBS control weight taken before the start of treatment. Liver, spleen, and kidney weights were measured at the end of the study, and are also presented in Table 80 as percentage of the body weight.

Substance: ISIS 445531: 5-8-5 or 6-8-6 MOE microwalk gapmer (Table 44) (antisense eG*eG*e[5mC]*eA*eT*dT*dG*dG*dT*dG*d[5mC]*dA*d[5mC]*eA*eG*eT*eT*eT)
- ALT [1]: 60 IU/L
- AST [1]: 127 IU/L
- Albumin [1]: 3.2
- Bilirubin [1]: 0.16 mg/dL

Substance: ISIS 445522: 5-8-5 or 6-8-6 MOE microwalk gapmer (Table 44) (antisense eG*e[5mC]*eA*e[5mC]*eA*dG*dT*dT*dT*d[5mC]*dT*dG*dG*e[5mC]*eA*eG*eG*e[5mC])
- ALT [1]: 51 IU/L
- AST [1]: 110 IU/L
- Albumin [1]: 3.4
- Bilirubin [1]: 0.19 mg/dL

Substance: ISIS 449710: 3-8-3, 4-8-4, 2-10-2, 3-10-3 or 4-10-4 MOE microwalk gapmer (Table 46) (antisense e[5mC]*eA*e[5mC]*dA*dG*dT*dT*dT*d[5mC]*dT*dG*dG*d[5mC]*eA*eG*eG)
- ALT [2]: 43 IU/L
- AST [2]: 95 IU/L
- Albumin [2]: 2.8
- Bilirubin [2]: 0.18 mg/dL
- body weight [3]: 42 g
- Platelets [4]: 1245 nL⁻¹
- RBC [4]: 9.1 pL⁻¹
- WBC [4]: 7 nL⁻¹
- hematocrit [4]: 48%
- hemoglobin [4]: 13.5 g/dL
- lymphocytes [4]: 81%
- monocytes [4]: 3%
- neutrophils [4]: 15%

Substance: ISIS 449709: 3-8-3, 4-8-4, 2-10-2, 3-10-3 or 4-10-4 MOE microwalk gapmer (Table 46) (antisense eG*e[5mC]*eA*e[5mC]*dA*dG*dT*dT*dT*d[5mC]*dT*dG*dG*d[5mC]*eA*eG*eG*e[5mC])
- ALT [2]: 62 IU/L
- AST [2]: 83 IU/L
- Albumin [2]: 2.8
- Bilirubin [2]: 0.18 mg/dL
- body weight [3]: 40 g
- Platelets [4]: 1447 nL⁻¹
- RBC [4]: 9.2 pL⁻¹
- WBC [4]: 5 nL⁻¹
- hematocrit [4]: 49%
- hemoglobin [4]: 13.2 g/dL
- lymphocytes [4]: 76%
- monocytes [4]: 4%
- neutrophils [4]: 19%

Substance: ISIS 449711: 3-8-3, 4-8-4, 2-10-2, 3-10-3 or 4-10-4 MOE microwalk gapmer (Table 46) (antisense eA*e[5mC]*dA*dG*dT*dT*dT*d[5mC]*dT*dG*dG*d[5mC]*eA*eG)
- ALT [2]: 52 IU/L
- AST [2]: 83 IU/L
- Albumin [2]: 2.8
- Bilirubin [2]: 0.22 mg/dL
- body weight [3]: 42 g
- Platelets [4]: 1225 nL⁻¹
- RBC [4]: 9.0 pL⁻¹
- WBC [4]: 6 nL⁻¹
- hematocrit [4]: 48%
- hemoglobin [4]: 13.3 g/dL
- lymphocytes [4]: 79%
- monocytes [4]: 6%
- neutrophils [4]: 15%

Substance: ISIS 449708: 3-8-3, 4-8-4, 2-10-2, 3-10-3 or 4-10-4 MOE microwalk gapmer (Table 46) (antisense eA*e[5mC]*eA*dG*dT*dT*dT*d[5mC]*dT*dG*dG*e[5mC]*eA*eG)
- ALT [2]: 66 IU/L
- AST [2]: 103 IU/L
- Albumin [2]: 2.8
- Bilirubin [2]: 0.17 mg/dL
- body weight [3]: 40 g
- Platelets [4]: 1395 nL⁻¹
- RBC [4]: 9.2 pL⁻¹
- WBC [4]: 7 nL⁻¹
- hematocrit [4]: 48%
- hemoglobin [4]: 13.2 g/dL
- lymphocytes [4]: 77%
- monocytes [4]: 5%
- neutrophils [4]: 17%

Substance: ISIS 449707: 3-8-3, 4-8-4, 2-10-2, 3-10-3 or 4-10-4 MOE microwalk gapmer (Table 46) (antisense e[5mC]*eA*e[5mC]*eA*dG*dT*dT*dT*d[5mC]*dT*dG*dG*e[5mC]*eA*eG*eG)
- ALT [2]: 41 IU/L
- AST [2]: 62 IU/L
- Albumin [2]: 2.3
- Bilirubin [2]: 0.19 mg/dL
- body weight [3]: 42 g
- Platelets [4]: 1386 nL⁻¹
- RBC [4]: 8.4 pL⁻¹
- WBC [4]: 6 nL⁻¹
- hematocrit [4]: 45%
- hemoglobin [4]: 12.4 g/dL
- lymphocytes [4]: 85%
- monocytes [4]: 3%
- neutrophils [4]: 11%

Substance: ISIS 416858: MOE gapmer, nucleobases 1275 to 1318 of SEQ ID NO: 1 (Table 8) (antisense ACGGCATTGGTGCACAGTTT; MOE gapmer, wing and gap sizes not given here)
- HCT [5]: 50%
- Lymphocyte [5]: 5480 cells/μL
- Neutrophil [5]: 2229 cells/μL
- Platelets [5]: 782 10^3/μL
- RBC [5]: 9 10^6/μL
- WBC [5]: 8 10^3/μL
- hemoglobin [5]: 14 g/dL
- monocytes [5]: 248 cells/μL
- Organ weights, Kidney [6]: 13 g
- Organ weights, Liver [6]: 60 g
- Organ weights, Spleen [6]: 12 g
- Spleen weight ([6]; cynomolgus monkeys, compared to the PBS control): shows increase in spleen weight
- body weights ([6]; day 1): 2912 g
- body weights ([6]; day 8): 2740 g
- body weights ([6]; day 15): 2760 g
- body weights ([6]; day 22): 2800 g
- body weights ([6]; day 29): 2763 g
- body weights ([6]; day 36): 2584 g
- body weights ([6]; day 43): 2607 g
- body weights ([6]; day 50): 2646 g
- body weights ([6]; day 57): 2617 g
- body weights ([6]; day 64): 2618 g
- body weights ([6]; day 71): 2865 g
- body weights ([6]; day 78): 2713 g
- Platelets [7]: 19 10^3/μL
- RBC [7]: 2
- WBC [7]: 28 nL⁻¹
- lymphocytes [7]: 3%
- monocytes [7]: 10%
- neutrophils [7]: 20%
- HCT [7]: 3%
- MCH [7]: 2
- MCHC [7]: 1%
- MCV [7]: 2
- ALT [8]: 640 IU/L
- AST [8]: 547 IU/L
- Bilirubin [8]: 0.28 mg/dL
- Cholesterol [8]: 181 mg/dL
- BUN [9]: 23 mg/dL
- body weight [10]: 12 g
- Kidney weight [10]: 1.6%
- Liver weight [10]: 7%
- Spleen weight [10]: 0.6%

Substance: ISIS 416864: MOE gapmer, nucleobases 1275 to 1318 of SEQ ID NO: 1 (Table 8) (antisense GGCAGCGGACGGCATTGGTG; MOE gapmer, wing and gap sizes not given here)
- HCT [5]: 52%
- Lymphocyte [5]: 3921 cells/μL
- Neutrophil [5]: 973 cells/μL
- Platelets [5]: 750 10^3/μL
- RBC [5]: 10 10^6/μL
- WBC [5]: 5 10^3/μL
- hemoglobin [5]: 15 g/dL
- monocytes [5]: 141 cells/μL
- Organ weights, Kidney [6]: 14 g
- Organ weights, Liver [6]: 53 g
- Organ weights, Spleen [6]: 5 g
- body weights ([6]; day 1): 2890 g
- body weights ([6]; day 8): 2784 g
- body weights ([6]; day 15): 2817 g
- body weights ([6]; day 22): 2857 g
- body weights ([6]; day 29): 2863 g
- body weights ([6]; day 36): 3327 g
- body weights ([6]; day 43): 3355 g
- body weights ([6]; day 50): 3408 g
- body weights ([6]; day 57): 3387 g
- body weights ([6]; day 64): 3384 g
- body weights ([6]; day 71): 2942 g
- body weights ([6]; day 78): 2822 g
- Platelets [7]: 12 10^3/μL
- RBC [7]: 4
- WBC [7]: 15 nL⁻¹
- lymphocytes [7]: 2%
- monocytes [7]: 29%
- neutrophils [7]: 26%
- HCT [7]: 2%
- MCH [7]: 2
- MCHC [7]: 4%
- MCV [7]: 4
- ALT [8]: 36 IU/L
- AST [8]: 67 IU/L
- Bilirubin [8]: 0.19 mg/dL
- Cholesterol [8]: 152 mg/dL
- BUN [9]: 24 mg/dL
- body weight [10]: 12 g
- Kidney weight [10]: 1.6%
- Liver weight [10]: 5%
- Spleen weight [10]: 0.3%
